Here are results for one compound from publication PMC8672821, “Investigating 3,3-diaryloxetanes as potential bioisosteres through matched molecular pair analysis” (RSC Medicinal Chemistry, 2021).

Series [1] can be described thus: elogD, automated reversed phase-HPLC logD (pH 7.4). It is filed as physicochemical. The conditions noted are these: Supelcosil LC-ABZ column. The procedure: elogD: An automated reversed phase-HPLC method developed by Lombardo et al. was used for logD (pH 7.4) measurements. All the chromatographic runs were performed on a HP -1100 HPLC ChemStation at the ambient temperature. The HPLC columns used were Supelcosil LC-ABZ, 5 µm, 4.6 mm × 50 mm. A diode array detector was used to monitor signals at 210, 225, 245, and 310 nm. The mobile phase consisted of 15−75% of A and 85−25% of B.
Mobile phase A: methanol with addition of 0.25% 1-octanol.
Mobile phase B: 20 mM of MOPS (morpholine−propane−sulfonic acid) buffer prepared in octanol saturated water and 0.25% of n-decylamine.
Samples were prepared in 1:1 mixture of methanol/water at 100 μg/mL concentration.
The retention of each compound is obtained at three different concentrations of methanol in the mobile phase and extrapolated to 0% methanol (100% water). […]

Series [2] in a line: RRCK passive permeability assay. It is filed as in vitro ADME, canine. The settings on record: dog, MDCK; read-out: RRCK cell permeability. The procedure:
Aqueous buffer preparation: pH 3: 50 µL of 1N hydrochloric acid was added to 500 mL of deionized water.
The solution was titrated with 1N hydrochloric acid to pH 3, and back titrated with 1N sodium hydroxide. pH 7.4: 100 mM sodium phosphate buffer is made by adding 56.4 g of dibasic sodium phosphate and 10.3 g of monobasic sodium phosphate to 4 L of deionized water. 250 µL of 100 mM sodium phosphate buffer was diluted with 250 µL of deionized water. The solution was titrated with 1N hydrochloric acid to pH 7.4, and back titrated with 1N sodium hydroxide. pH 10: Fisher Scientific pH 10 buffer (SB116-500) containing potassium hydroxide, potassium carbonate, and potassium borate. pH 12.8: 30 mL of 1N NaOH was added to 200 mL of deionized water. The solution was titrated with 1N sodium hydroxide to pH 12.8, and back titrated with 1N hydrochloric acid.
RRCK: Passive permeability assay were carried out using low‐efflux MDCKII cells (Madin–Darby canine kidney cell line) also called Ralph Russ Canine Kidney cell (RRCK).11

For orientation: melting point means the temperature, or range, at which the solid turns liquid. As a reminder, the chromatographic logD is a lipophilicity value derived from retention on a column. In general, logD refers to lipophilicity at a set pH, counting ionised and neutral species. A high value points to a more lipophilic compound. As to `Cc1cc(C2(c3cn(C)c4ccccc34)CCC2)ccc1O` [5e], the melting point fell in the range of 120 to 121 °C. Also, the chromatographic logD in series [1] turned out to be 5.4. Further, in series [2], the Papp was found to be 0.1 ×10⁻⁶ cm/s. For the same compound, the logD in the series “sfLogD” was determined as 4.4.
